In article PMC8157322, “Gd(III)–Pt(IV) theranostic contrast agents for tandem MR imaging and chemotherapy” (Chemical Science, 2020):

Experiments:
[1] = Aqueous solubility (qualitative); format: physicochemical; conditions: aqueous solutions / solvents
[2] = Relaxivity after incubation in 5 mM GSH in PBS; format: physicochemical; conditions: 1.41 T, PBS with 5 mM glutathione, 37 °C
Protocol: This is possibly due to an increase in the rotational correlation time (τR) or a change in the inner sphere hydration number (q) of Gd(III). The differences in relaxivity of GP1 and GP2 compared to 1 offers the possibility of monitoring reduction of the agents by MR at both high and low field strength. To test this, GP1, GP2, and 1 were incubated in 5 mM GSH in PBS and the relaxivity was measured (see ESI ^†). The relaxivity of each converged to the same value (r1 of 4.4, 4.5, and 4.6 mM^−1 s^−1 for 1, GP1, and GP2 respectively), indicating the same Gd(III) species was formed after reduction. The significant change in r1 upon reduction of GP1 and GP2 theoretically could be used to monitor intracellular reduction by MR. However, further testing needs to be done to determine if these agents are suitable for this application.
(§1) Fig. S2 Graph of r1 of (A) GP1 measured at 1.41 T (B) GP1 measured at 7 T (C) GP2 measured at 1.41 T
(D) GP2 measured at 7 T (E) 1 measured at 1.41 T (F) 1 measured at 7 T. All measurements were taken
in PBS at 37 °C (G) 1 measured at 1.41 T with 5 mM GSH (H) GP1 measured at 1.41 T with 5 mM GSH
and (I) GP2 measured at 1.41 T with 5 mM GSH.
(§2) Table S1. r1 of GP1, GP2, and 1 in PBS with 5 mM glutathione at 37 °C
(§3) GP1 (5 mM GSH) GP2 (5 mM GSH) 1 (5 mM GSH)

[3] = test system: HeLa cells; assay: MR imaging of cell pellets at 7 T; format: cell-based; conditions: 6 h incubation, cisplatin 15 μM, 1 100 μM, GP1 60 μM, GP2 250 μM
[4] = T1/T2 relaxivity measurements in PBS; format: physicochemical; conditions: 37 °C
Protocol: The T1 relaxivity (r1) and T2 relaxivity (r2) of 1, GP1, and GP2 were measured at both low (1.41 T) and high (7 T) magnetic field strength in phosphate-buffered saline (PBS) to quantify how well they behave as MR contrast agents. […] The relaxivity values for 1 are well within the range of what is expected for a small molecule Gd(III) complex.[34] […] At 7 T, there was little change in r1 for both agents, while both r2 values increased, as expected. […]
(§4) solution. These capillaries were imaged using a Bruker PharmaScan 7 T MR imaging spectrometer (Bruker BioSpin, Billerica, MA, USA). T1 relaxation times were measured using a rapid-acquisition rapid-echo (RARE-VTR) T1-map pulse sequence with static TE (10 ms) and […]
parameters were as follows: field of view (FOV) = 25 x 25 mm2, matrix size (MTX) = 256 x 256, number of axial slices = 5, slice thickness (SI) = 1.0 mm, and averages (NEX) = 4. T1 analysis was carried out using the image sequence analysis tool in Paravision 5.0 pl2 software (Bruker, Billerica, MA, USA) with monoexponential curve-fitting of image intensities of selected regions of interest (ROIs) for each axial slice. […]
as §1
(D) GP2 measured at 7 T (E) 1 measured at 1.41 T (F) 1 measured at 7 T. All measurements were taken in PBS at 37 °C (G) 1 measured at 1.41 T with 5 mM GSH (H) GP1 measured at 1.41 T with 5 mM GSH and (I) GP2 measured at 1.41 T with 5 mM GSH.
as §2, §3

[5] = test system: A2780 cells; assay: MR imaging of cell pellets at 7 T; format: cell-based; conditions: A2780, 7 T, 6 h incubation; cisplatin 7.5 μM, 1 100 μM, GP1 30 μM, GP2 60 μM
[6] = Reduction by 5 mM GSH / 5 mM ascorbate at 37 °C (HPLC-MS); format: physicochemical
Protocol: Under reducing conditions both agents rapidly converted to a monomeric Gd(III) complex and a Pt(II) drug. Each agent was incubated with 5 mM GSH and 5 mM ascorbate at 37 °C to mimic intracellular conditions. […] This is not surprising, as ascorbate is a weaker reducing agent. […]
as §4
Stability of GP1 and GP2 in various aqueous media. […] An aliquot of each was dissolved in H2O and analyzed by HPLC-MS using an Atlantis C18 column (4.6 × 250 mm, 5 μm) and the following method: MeCN held at 0% for 3 min followed by a 15 min ramp to 100% MeCN (GP1 retention time: 10.9 min, GP2 retention time: 11.6 min). Aliquots of both were additionally dissolved in PBS, MEM, RPMI-1640, pH 5 H2O, PBS with 10 units/mL porcine liver esterase, 5 mM glutathione, and 5 mM sodium ascorbate, incubated in a shaker at 37 °C, and were analyzed by HPLC-MS at different time points using the same method. At each time point, the area of the peak of GP1 or GP2 was determined by integration and compared to the area of the peaks in H2O. […]

Compound: [NH2][Pt]([NH2])([OH])([Cl])([Cl])[O]C(=O)CCCCCN1CCN2CCN3CCN(CC1)CC(=O)[O][Gd]([O]C(=O)C2)[O]C(=O)C3 [GP1]
- Solubility [1]: readily soluble in aqueous solutions
- r1 with 5 mM GSH [2]: 4.5 mM⁻¹ s⁻¹
- T1 of cell pellet [3]: 1557 ± 17 ms
- Δ R1 (increase in R1 vs untreated control) [3]: 48%
- r1 (T1 relaxivity) ([4]; 1.41 T): 7.0 mM⁻¹ s⁻¹
- r1 (T1 relaxivity) ([4]; 7 T): 7.1 mM⁻¹ s⁻¹
- T1 of cell pellet [5]: 1708 ± 27 ms
- Δ R1 (increase in R1 vs untreated control) [5]: 36%
- Reduction by GSH ([6]; 5 mM GSH, in less than an hour): ≥ 94%
- Reduction by ascorbate ([6]; 5 mM ascorbate, compared to GSH): reduced by ascorbate, albeit it at a much slower rate
